Here are results for 43 molecules from US7829063B2, “Development of molecular imaging probes for carbonic anhydrase-IX using click chemistry” (Siemens Medical Solutions USA, Inc., priority 2007, dated 2010).

The experiment deals with T1, CA-IX (Homo sapiens, UniProt Q16790).
T1 construct: His tag (C); purchased R&D Systems Inc. 2188-CA; host or cells: mouse myeloma cell line NS0
In words: Binding affinity (Kd) determination for CA-IX inhibitors, DNSA fluorescence competition assay, Scatchard plots. As to conditions: Table 3. On the procedure:
General. […] The human red blood cells were obtained from Research Blood Components, LLC. All absorbance measurements were performed on a SPECTRA MAX M2 plate reader at 25° C. The LC/MS analyses were performed on an Agilent 1100 series LC/MSD (SL) using a 30×2.1 mm Zorbax C8 column with a Phenomenex C18 pre-column. Compound detection was accomplished by electrospray mass spectroscopy in positive selected ion mode (LC/MS-SIM). The elution solvents were acetonitrile and water, contained 0.05% TFA. Nuclear magnetic resonance (NMR) spectra were obtained on a Bruker AMX 300 MHz spectrometer or a Varian 400. 19F NMR spectra were recorded on a Bruker AMX 282.35 MHz or a Varian 400 spectrometer. The mass spectra were recorded on an Agilent 1100 series LC/MSD with electrospray mass spectroscopic detection. Flash column chromatography was performed on Merck silica gel (40-63 μm) using the solvent system indicated. The radiochemical and chemical purities were analyzed by RP-HPLC.
General Procedure of Binding Affinity (Ka) Determination for CA-IX Inhibitors
The assay was based on the observation that the only fluorescence signal detected at 460 nm upon excitation at 290 nm, an absorption […] for DNSA, was that of the DNSA.CA complex. […] The latter were developed for each test compound using mass balance for calculating the concentration of CA bound to DNSA [DNSA.CA], bound to the non-fluorescent sample [CA.Inh] and free CA [CA] in solution. The Kd values were determined from Scatchard plots using the equation below as described by Whitesides et al. [CA.Inh]/[CA]tot.[Inh]=K11^inh−K11^inh{[CA.Inh]+[CA.DNSA]}/([CA]tot)
The terms [CA.DNSA], [CA.Inh], and free CA were calculated using the mass balance based on the known values for the dissociation constant of CA.DNSA and the total concentration of CA in each reaction.
`CC(C)[C@@H](C(=O)NCc1ccc(C(F)(F)F)cc1)n1cc(COc2ccc3nc(S(N)(=O)=O)sc3c2)nn1` [DHK2-24]: the Kd is 1 nM.
In the case of `CCOC(=O)C1CCN(C(=O)[C@H](C(C)C)n2cc(COc3ccc4nc(S(N)(=O)=O)sc4c3)nn2)CC1` [DHK2-41], the Kd stood at 5 nM.
With `CC(C)[C@@H](C(=O)NCC1COc2ccccc2O1)n1cc(COc2ccc3nc(S(N)(=O)=O)sc3c2)nn1` (stereo partly shown) [DHK2-44], the Kd stood at 5 nM.
Next, `NS(=O)(=O)c1nc2ccc(OCc3cn([C@@H](Cc4ccccc4)C(=O)NCc4ccc(C(F)(F)F)cc4)nn3)cc2s1` [DHK2-51, (S)-3-phenyl-2-(4-((2-sulfamoylbenzo[d]thiazol-6-yloxy)methyl)-1H-1,2,3-triazol-1-yl)-N-(4-(trifluoromethyl)benzyl)propanamide]: 2.5 nM; `Cc1onc(-c2ccccc2)c1CNC(=O)[C@H](Cc1ccccc1)n1cc(COc2ccc3nc(S(N)(=O)=O)sc3c2)nn1` [DHK2-66]: 2 nM; `CCOC(=O)C1CCN(C(=O)[C@H](Cc2ccccc2)n2cc(COc3ccc4nc(S(N)(=O)=O)sc4c3)nn2)CC1` [DHK2-68]: 3.4 nM.
Next, `NS(=O)(=O)c1nc2ccc(OCc3cn([C@@H](Cc4ccccc4)C(=O)NCC4COc5ccccc5O4)nn3)cc2s1` (stereo partly shown) [DHK2-71]: 2.5 nM; `CC(C)[C@@H](C(=O)N1CCC(C(=O)O)CC1)n1cc(COc2ccc3nc(S(N)(=O)=O)sc3c2)nn1` [DHK2-84]: 10 nM.
Next, `NS(=O)(=O)c1nc2ccc(OCc3cn([C@@H](Cc4ccccc4)C(=O)N4CCC(C(=O)O)CC4)nn3)cc2s1` [DHK2-94]: 10 nM; `CC(C)[C@@H](C(=O)NCc1ccc(CN(C)C)o1)n1cc(-c2ccc(S(N)(=O)=O)cc2)nn1` [DHK2-95]: 25 nM.
For the molecule `CCOC(=O)C1CCN(C(=O)[C@H](Cc2ccc(OCCF)cc2)n2cc(COc3ccc4nc(S(N)(=O)=O)sc4c3)nn2)CC1` [DHK2-118], the Kd was 5 nM.
Take `NS(=O)(=O)c1nc2ccc(OCc3cn([C@@H](Cc4ccc(OCCF)cc4)C(=O)NCc4ccc(C(F)(F)F)cc4)nn3)cc2s1` [DHK2-119]: the Kd came out at 3.4 nM.
The same measure for `NS(=O)(=O)c1nc2ccc(OCc3cn([C@@H](Cc4ccc(OCCF)cc4)C(=O)N4CCC(C(=O)O)CC4)nn3)cc2s1` [DHK2-120]: 5 nM; for `COC(=O)[C@H](Cc1ccc(C(F)(F)F)cc1)NC(=O)[C@H](Cc1ccc(OCCF)cc1)n1cc(COc2ccc3nc(S(N)(=O)=O)sc3c2)nn1` [DHK2-127, (S)-methyl 2-((S)-3-(4-(2-fluoroethoxy)phenyl)-2-(4-((2-sulfamoylbenzo[d]thiazol-6-yloxy)methyl)-1H-1,2,3-triazol-1-yl)propanamido)-3-(4-(trifluoromethyl)phenyl)propanoate]: 2 nM.
The same measure for `COC(=O)C[C@H](NC(=O)[C@H](Cc1ccc(OCCF)cc1)n1cc(COc2ccc3nc(S(N)(=O)=O)sc3c2)nn1)c1ccccc1` [DHK2-128]: 10 nM; for `COC(=O)[C@H](Cc1ccc(C(F)(F)F)cc1)NC(=O)[C@H](C(C)C)n1cc(COc2ccc3nc(S(N)(=O)=O)sc3c2)nn1` [DHK2-129]: 1.2 nM.
Next, `COC(=O)C[C@H](NC(=O)[C@H](C(C)C)n1cc(COc2ccc3nc(S(N)(=O)=O)sc3c2)nn1)c1ccc(C(F)(F)F)cc1` [DHK2-130]: 5 nM.
`CC(C)[C@@H](C(=O)N[C@@H](Cc1ccc(C(F)(F)F)cc1)C(=O)O)n1cc(COc2ccc3nc(S(N)(=O)=O)sc3c2)nn1` [DHK2-132] showed a Kd of 0.5 nM.
`CC(C)[C@@H](C(=O)N[C@@H](CC(=O)O)c1ccc(C(F)(F)F)cc1)n1cc(COc2ccc3nc(S(N)(=O)=O)sc3c2)nn1` [DHK2-133] registered a Kd of 1.7 nM.
The same measure for `NS(=O)(=O)c1nc2ccc(OCc3cn([C@@H](Cc4ccc(OCCF)cc4)C(=O)N[C@@H](Cc4ccc(C(F)(F)F)cc4)C(=O)O)nn3)cc2s1` [DHK2-134, (S)-2-((S)-3-(4-(2-fluoroethoxy)phenyl)-2-(4-((2-sulfamoylbenzo[d]thiazol-6-yloxy)methyl)-1H-1,2,3-triazol-1-yl)propanamido)-3-(4-(trifluoromethyl)phenyl)propanoic acid]: 0.5 nM; for `NS(=O)(=O)c1nc2ccc(OCc3cn([C@@H](Cc4ccc(OCCF)cc4)C(=O)N[C@@H](CC(=O)O)c4ccccc4)nn3)cc2s1` [DHK2-135]: 5 nM; for `C[N+](C)(C)C[C@H](O)CC(=O)NCCCC[C@@H](C(=O)NCc1ccc(C(F)(F)F)cc1)n1cc(COc2ccc3nc(S(N)(=O)=O)sc3c2)nn1` [DHK2-147]: 11 nM.
Next, `N[C@@H](CO)C(=O)NCCCC[C@@H](C(=O)NCc1ccc(C(F)(F)F)cc1)n1cc(COc2ccc3nc(S(N)(=O)=O)sc3c2)nn1` [DHK2-157]: 25 nM; `CC(C)[C@@H](C(=O)N[C@H](Cc1ccc(C(F)(F)F)cc1)C(=O)O)n1cc(COc2ccc3nc(S(N)(=O)=O)sc3c2)nn1` [DHK2-160-F1]: 10 nM.
The same measure for `CC(C)[C@@H](C(=O)N[C@H](Cc1ccc(C(F)(F)F)cc1)C(=O)O)n1cc(COc2ccc3nc(S(N)(=O)=O)sc3c2)nn1` [DHK2-160-F2]: 5 nM; for `NS(=O)(=O)c1nc2ccc(OCc3cn([C@@H](Cc4ccc(OCCF)cc4)C(=O)N[C@H](Cc4ccc(C(F)(F)F)cc4)C(=O)O)nn3)cc2s1` [DHK2-161]: 5 nM.
Consider `NS(=O)(=O)c1nc2ccc(OCc3cn([C@@H](Cc4ccc(OCC(O)CF)cc4)C(=O)N[C@@H](Cc4ccc(C(F)(F)F)cc4)C(=O)O)nn3)cc2s1` (stereo partly drawn) [DHK2-173, (2S)-2-((2S)-3-(4-(3-fluoro-2-hydroxypropoxy)phenyl)-2-(4-((2-sulfamoylbenzo[d]thiazol-6-yloxy)methyl)-1H-1,2,3-triazol-1-yl)propanamido)-3-(4-(trifluoromethyl)phenyl)propanoic acid], for which binding was put at a Kd of 2 nM.
Molecule `NS(=O)(=O)c1nc2ccc(OCc3cn([C@@H](Cc4ccc(OCCF)cc4)C(=O)NCc4ccc(OC(F)(F)F)cc4)nn3)cc2s1` [DHK2-176] registered a Kd of 5 nM.
The same measure for `NS(=O)(=O)c1nc2ccc(OCc3cn([C@@H](Cc4ccc(OCCF)cc4)C(=O)N[C@@H](Cc4c[nH]c5ccccc45)C(=O)O)nn3)cc2s1` [DHK2-180]: 14 nM.
In the case of `NS(=O)(=O)c1nc2ccc(OCc3cn([C@@H](Cc4ccc(OCCF)cc4)C(=O)NC(Cc4cccc(C(F)(F)F)c4)C(=O)O)nn3)cc2s1` (stereo partly shown) [DHK2-181], the Kd is 2 nM.
Next, `N#Cc1ccc(C[C@H](CC(=O)[C@H](Cc2ccc(OCCF)cc2)n2cc(COc3ccc4nc(S(N)(=O)=O)sc4c3)nn2)C(=O)O)cc1` [DHK2-187]: 17 nM.
Next, `COCCOCCOCCOCCC(=O)NCCOc1cccc(CSC[C@@H](NC(=O)Cn2cc(COc3ccc4nc(S(N)(=O)=O)sc4c3)nn2)C(=O)O)c1` [DHK3-48]: 10 nM; `NCCOc1cccc(COCC(NC(=O)Cn2cc(COc3ccc4nc(S(N)(=O)=O)sc4c3)nn2)C(=O)O)c1` (stereo not shown) [DHK3-149]: 10 nM; `NS(=O)(=O)c1nc2ccc(OCc3cn(CC(=O)NC(COCc4cccc(OCCNC(=O)CCC(=O)O)c4)C(=O)O)nn3)cc2s1` (stereo not shown) [DHK3-154]: 25 nM.
The molecule `NCC1OC(C(=O)NCCOc2cccc(COCC(NC(=O)Cn3cc(COc4ccc5nc(S(N)(=O)=O)sc5c4)nn3)C(=O)O)c2)C(O)C(O)C1O` (stereo not shown) [DHK3-155] came in with a Kd of 11 nM.
The molecule `C[N+](C)(C)C[C@H](O)CC(=O)NCCOc1cccc(COCC(NC(=O)Cn2cc(COc3ccc4nc(S(N)(=O)=O)sc4c3)nn2)C(=O)O)c1` (stereo partly shown) [DHK3-156] returned a Kd of 10 nM.
Molecule `NS(=O)(=O)c1nc2ccc(OCc3cn(CC(=O)NC(COCc4cccc(OCCNC(=O)CN(CCO)CCO)c4)C(=O)O)nn3)cc2s1` (stereo not shown) [DHK3-158] had a Kd of 14 nM.
As for `NS(=O)(=O)c1nc2ccc(OCc3cn(Cc4ccc(C(=O)O)cc4)nn3)cc2s1` [DHK159], binding was characterised by a dissociation constant (Kd) of 14.1 nM.
Regarding `Cc1cc[n+](C)c(NC(=O)[C@H](Cc2ccccc2)n2cc(-c3ccc(S(N)(=O)=O)cc3)nn2)c1` [DHK160], the Kd came to 20 nM.
As to `NS(=O)(=O)c1nc2ccc(OCc3cn(CC(=O)N[C@@H](CSCc4ccccc4)C(=O)O)nn3)cc2s1` [DHK161], binding was characterised by a dissociation constant (Kd) of 10 nM.
The same measure for `NS(=O)(=O)c1nc2ccc(OCc3cn(CC(=O)N[C@@H](Cc4ccc(OCCF)cc4)C(=O)O)nn3)cc2s1` [UG3150, (S)-3-(4-(2-fluoroethoxy)phenyl)-2-(2-(4-((2-sulfamoylbenzo[d]thiazol-6-yloxy)methyl)-1H-1,2,3-triazol-1-yl)acetamido)propanoic acid]: 3.3 nM; for `NS(=O)(=O)c1nc2cc(OCc3cn(CC(=O)N[C@@H](CSCc4cccc(OCCF)c4)C(=O)O)nn3)ccc2s1` [VM2-41]: 5 nM; for `COC(=O)[C@@H](CSCc1cccc(O)c1)NC(=O)[C@H](CCO)n1cc(COc2ccc3nc(S(N)(=O)=O)sc3c2)nn1` [VM2-93]: 10 nM.

The Kd is the concentration at which binding is half-saturated. A high value points to weaker binding.
